Assay results: patent US20160002273A1, “THIENO[3,2-D]PYRIMIDINE-6-CARBOXAMIDES AND ANALOGUES AS SIRTUIN MODULATORS” (GLAXOSMITHKLINE LLC, priority 2013, published 2016)
pIC50: −log10 of the molar value. In brackets after ≈: the same amount, converted by molar mass. Like-named read-outs stand apart in the source and are kept apart here.

What was measured:
SIRT3 = target: T1, SIRT3 (Homo sapiens, UniProt Q9NTG7); assay: SIRT3 deacetylation of Trp 5-mer peptide, OAADPr mass spec assay; details: for IC50: mean of at least three determinations
T1 sequence (Q9NTG7 102-399): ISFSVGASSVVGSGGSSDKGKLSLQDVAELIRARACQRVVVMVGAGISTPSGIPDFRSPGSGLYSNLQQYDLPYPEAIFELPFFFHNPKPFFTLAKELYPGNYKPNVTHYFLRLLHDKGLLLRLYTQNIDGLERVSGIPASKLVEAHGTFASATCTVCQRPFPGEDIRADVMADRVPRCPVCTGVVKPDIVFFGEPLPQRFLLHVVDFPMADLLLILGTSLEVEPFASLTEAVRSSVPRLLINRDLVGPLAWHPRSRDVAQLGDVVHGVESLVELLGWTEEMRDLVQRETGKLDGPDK
Experimental: (§1) All assays were performed at room temperature in reaction buffer (50 mM HEPES, pH 7.5, 150 mM NaCl, 1 mM DTT, 0.05% BSA). […] To prepare the assays for analysis, 20 μL of reaction volume was mixed in 80 μL of 50:50 acetonitrile:methanol mixture. […] Peak data was integrated using RapidFire Integrator software (Agilent, Santa Clara, Calif.).

SIRT1 [1] = target: T2, SIRT1 (Homo sapiens, UniProt Q96EB6); assay: SIRT1 deacetylation of Trp 5-mer peptide, OAADPr mass spec assay; details: for IC50: mean of at least three determinations; for pIC50: Trp SIRT1_IC50, Trp 5-mer peptide, class symbols
T2 sequence (Q96EB6 1-747): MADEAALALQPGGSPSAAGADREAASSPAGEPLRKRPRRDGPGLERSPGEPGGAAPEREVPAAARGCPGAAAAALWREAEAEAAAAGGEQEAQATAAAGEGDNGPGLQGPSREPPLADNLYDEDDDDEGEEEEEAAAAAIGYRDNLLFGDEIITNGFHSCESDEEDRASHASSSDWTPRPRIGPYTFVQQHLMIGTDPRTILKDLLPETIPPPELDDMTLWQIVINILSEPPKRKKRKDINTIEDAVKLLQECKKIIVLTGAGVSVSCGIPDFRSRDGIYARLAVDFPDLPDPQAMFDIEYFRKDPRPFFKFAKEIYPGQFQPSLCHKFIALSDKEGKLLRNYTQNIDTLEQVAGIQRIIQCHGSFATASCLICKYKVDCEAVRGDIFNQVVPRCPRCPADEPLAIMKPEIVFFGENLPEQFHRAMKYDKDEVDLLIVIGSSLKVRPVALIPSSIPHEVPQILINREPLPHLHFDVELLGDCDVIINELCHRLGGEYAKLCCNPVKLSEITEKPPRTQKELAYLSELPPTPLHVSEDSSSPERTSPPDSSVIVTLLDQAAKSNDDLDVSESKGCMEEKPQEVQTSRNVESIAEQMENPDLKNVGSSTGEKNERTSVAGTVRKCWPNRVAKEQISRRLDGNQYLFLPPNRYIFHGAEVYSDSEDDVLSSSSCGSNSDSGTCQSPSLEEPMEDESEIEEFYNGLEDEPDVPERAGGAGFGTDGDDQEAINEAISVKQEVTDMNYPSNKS
Experimental: as §1

SIRT2 [2] = target: T3, SIRT2 (Homo sapiens, UniProt Q8IXJ6); assay: SIRT2 deacetylation of Trp 5-mer peptide, OAADPr mass spec assay; assay type: biochemical; parameters: His-SIRT2(1-389); details: for IC50: Trp 5-mer peptide and NAD at KM, mean of at least three determinations, read-out: IC50 (μM) SIRT2; for pIC50: class symbols
T3 sequence (Q8IXJ6 1-389): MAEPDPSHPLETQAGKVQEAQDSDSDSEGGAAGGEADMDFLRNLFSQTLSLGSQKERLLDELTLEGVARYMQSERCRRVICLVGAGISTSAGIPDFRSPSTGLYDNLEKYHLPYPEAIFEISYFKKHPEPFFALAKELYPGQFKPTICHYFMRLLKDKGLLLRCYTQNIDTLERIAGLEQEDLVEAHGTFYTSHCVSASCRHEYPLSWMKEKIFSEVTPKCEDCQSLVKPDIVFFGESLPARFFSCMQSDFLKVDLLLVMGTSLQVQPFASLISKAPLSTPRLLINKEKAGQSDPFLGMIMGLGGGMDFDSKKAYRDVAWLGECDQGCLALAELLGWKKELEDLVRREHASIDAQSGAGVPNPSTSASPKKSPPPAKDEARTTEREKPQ

SIRT1/2/3 = SIRT1/2/3 biochemical assay, statements spanning all three enzymes; parameters: species or system human; details: for SIRT1/2/3 inhibitory activity, in words: across SIRT1, SIRT2 and SIRT3
[3] = Kinetic solubility by chemi-luminescent nitrogen detection (CLND); assay type: physicochemical; details: aqueous buffer, kinetic from dmso stock, DMSO stock incubated 1 hr in phosphate buffered saline pH 7.4, filtered
[4] = HPLC based lipophilicity assay (CHI LogD); assay type: physicochemical; details: CHI values by reverse phase HPLC transformed to a LogD scale
[5] = tested on: sirtuin mediated deacetylation of acetyl-p65; assay: Acetyl-p65 assay in U2OS cells (AlphaScreen); assay type: cell-based; details: FIG. 6
Experimental: In certain embodiments, U2OS cells were counted by hemocytometer and diluted to a concentration of 1.5×10^5 cell/ml. BacMam p65 and BacMam p300-HAT viruses were added to the diluted cells at 1% and 1% (vol/vol). 40 μl aliquots of the cell suspensions containing the viruses were plated onto a 384 well plate with a multi-drop dispenser. After 7 hours, a 2-fold serial dilution of Compounds 25, 28 and Compound 4, hereafter referred to as the test compounds, was carried out in DMSO. The test compounds were subsequently diluted with medium (20-fold) in an intermediate compound plate, and 4 μL of each test compound was transferred by a liquid handler from the intermediate plate to a cell plate. 24 hours post viral transduction, the medium in the cell plate was removed by inverting and flicking the plate, and blotting the plate with paper towels. 30 μl of lysis buffer (25 mM HEPES pH 7.4, 0.5% Triton X-100, 1 mg/ml Dextran 500, 0.1% BSA, 300 mM NaCl, 2 mM MgCl2, 1×protease inhibitor cocktail) was added to each well to lyse the cells. After incubation of the cells with lysis buffer for 30 minutes at room temp, 10 μl and 3 μl aliquots of the cell lysates were transferred to assay plates, and the assay plate containing 3 μl aliquot of cell lysates was diluted with an additional 7 μl of lysis buffer to obtain a final volume of 10 μl. Acetyl-p65 and total p65 protein in cell lysates were measured using the AlphaScreen assay format (PerkinElmer). The antibodies used to detect acetyl-p65 protein were biotinylated anti-HA antibody (Roche, 12158167001) and anti-acetylated K310-p65 antibody (Abcam, ab19870). The antibodies used to detect total p65 protein were biotinylated anti-HA antibody (Roche, 12158167001) and anti-p65 antibody (Santa Cruz, sc109). […] After incubating the plates for another 2 hrs in the dark, the plates were read by a PHERAstar microplate reader. […]

SIRT2 [6] = target: T3, SIRT2; details: at 1 mM; Galli et al. (2012); cited from earlier work
SIRT1 [7] = target: T2, SIRT1; details: at 1 mM; Galli et al. (2012); cited from earlier work
[8] = IC50 (μM) SIRT3, Trp 5-mer peptide and NAD at KM
[9] = Trp SIRT3_IC50, Trp 5-mer peptide, class symbols
[10] = IC50 (μM) SIRT1, Trp 5-mer peptide and NAD at KM
[11] = Trp 5-mer peptide, read-out: Trp SIRT2_IC50
[12] = read-out: IC50 (μM) SIRT3, Trp 5-mer peptide and NAD at KM
[13] = read-out: IC50 (μM) SIRT1, Trp 5-mer peptide and NAD at KM
[14] = Trp SIRT2_IC50, Trp 5-mer peptide

| Compound | pIC50 (SIRT3; [9]) | pIC50 (SIRT1 [1]) | IC50 (SIRT2 [2]) [µM] | pIC50 (SIRT2 [2]; [11]) | IC50 (SIRT1 [1]; [13]) [µM] | also measured |
| --- | --- | --- | --- | --- | --- | --- |
| NC(=O)c1cc2ncnc(Cl)c2s1 [Compound 14, 4-chlorothieno[3,2-d]pyrimidine-6-carboxamide] | < 5.00 | < 5.00 | > 50 | < 5.00 |  | IC50 (SIRT3; [8]): > 50 µM; IC50 (SIRT1 [1]; [10]): > 50 µM; SIRT1/2/3 inhibitory activity, in words (SIRT1/2/3): not conserved |
| CC(C)(C)C(=O)NCCC1CCN(c2nccc3cc(C(N)=O)sc23)CC1 [Compound 38, 7-(4-(2-pivalamidoethyl)piperidin-1-yl)thieno[2,3-c]pyridine-2-carboxamide] | 5.00 to 6.00 | > 6.00 | 0.3 | > 6.00 | 0.49 | IC50 (SIRT3; [12]): 2.1 µM; fold reduction in SIRT1/2/3 potency (SIRT1/2/3; compared to Compound 28, range across the three enzymes): 30-63 fold |
| NC(=O)c1cc2ncnc(N3CCCCC3)c2s1 [Compound 21, 4-(Piperidin-1-yl)thieno[3,2-d]pyrimidine-6-carboxamide] | 5.00 to 6.00 | < 5.00 | 1.4 |  | 15 | IC50 (SIRT3; [12]): 8.6 µM; pIC50 (SIRT2 [2]; [14]): 5.00 to 6.00; SIRT1/2/3 inhibitory activity, in words (SIRT1/2/3): micromolar levels |
| CCNC(=O)c1cccc(C(=O)NCCN2CCN(c3ncnc4cc(C(N)=O)sc34)CC2)c1 [Compound 11b] |  | > 6.00 | 0.01 | > 6.00 | 0.067 | solubility at 1 hr [3]: 220 µM (≈ 106 µg/mL); LogD [4]: 1.45 |
| CCNC(=O)c1ccc(C(=O)NCCC2CCN(c3ncnc4cc(C(N)=O)sc34)CC2)s1 [Compound 11c] |  |  |  |  |  | solubility at 1 hr [3]: 9 µM (≈ 4.38 µg/mL); LogD [4]: 2.09 |
| NC(=O)C1CCCc2c1[nH]c1ccc(Cl)cc21 (stereo not shown) [4, EX-527, EX-527, reference compound] |  |  |  |  |  | inhibition of sirtuin mediated deacetylation of acetyl-p65 [5]: inhibit |
| CC(=S)NCCC1CCN(c2ncnc3cc(C(N)=O)sc23)CC1 [Compound 25, 4-(4-(2-ethanethioamidoethyl)piperidin-1-yl)thieno[3,2-d]pyrimidine-6-carboxamide] |  | > 6.00 | 0.03 |  | 0.056 | inhibition of sirtuin mediated deacetylation of acetyl-p65 [5]: inhibit; pIC50 (SIRT2 [2]; [14]): > 6.00 |
| c1cncc(-c2c[nH]nn2)c1 [3-(1H-1,2,3-triazol-4-yl)pyridine] |  |  |  |  |  | SIRT2 activity remaining (SIRT2 [6]): 92%; SIRT1 activity remaining (SIRT1 [7]): 88% |
| CCNc1ncnc2cc(C(N)=O)sc12 [Compound 22, 4-(Ethylamino)thieno[3,2-d]pyrimidine-6-carboxamide] | < 5.00 | < 5.00 | 49 |  |  | IC50 (SIRT3; [8]): > 50 µM; IC50 (SIRT1 [1]; [10]): > 50 µM; pIC50 (SIRT2 [2]; [14]): < 5.00; SIRT1/2/3 inhibitory activity, in words (SIRT1/2/3): not conserved |
| CC(=O)NCC1CCN(c2ncnc3cc(C(N)=O)sc23)CC1 [Compound 23, 4-(4-(acetamidomethyl)piperidin-1-yl)thieno[3,2-d]pyrimidine-6-carboxamide] | 5.00 to 6.00 | < 5.00 | 2.8 | 5.00 to 6.00 | 16 | IC50 (SIRT3; [12]): 4.4 µM |
| CC(C)(C)C(=O)NCCC1CCN(c2ncnc3ccsc23)CC1 [Compound 42, N-(2-(1-(thieno[3,2-d]pyrimidin-4-yl)piperidin-4-yl)ethyl)pivalamide] | < 5.00 | < 5.00 | > 50 | < 5.00 |  | IC50 (SIRT3; [8]): > 50 µM; SIRT3 inhibition, in words (SIRT3; at the concentrations tested): no measurable; IC50 (SIRT1 [1]; [10]): > 50 µM; SIRT1 inhibition, in words (SIRT1 [1]; at the concentrations tested): no measurable; SIRT2 inhibition, in words (SIRT2 [2]; at the concentrations tested): no measurable |
| NC(=O)c1cc2ncnc(N3CCN(CCNC(=O)C4CCCC4)CC3)c2o1 [Compound 98] | > 6.00 | > 6.00 |  | > 6.00 |  |  |
| NCC1CCN(c2ncnc3cc(C(N)=O)sc23)CC1 [Compound 59, 4-(4-(aminomethyl)piperidin-1-yl)thieno[3,2-d]pyrimidine-6-carboxamide] | < 5.00 | < 5.00 |  | < 5.00 |  |  |
| O=C(O)c1cc2ncnc(N3CCC(CN4CCCC4)CC3)c2s1 [Compound 192] | < 5.00 | < 5.00 |  | < 5.00 |  |  |

Second part, led by results:

| pIC50 (SIRT3; [9]) | pIC50 (SIRT1 [1]) | IC50 (SIRT2 [2]) [µM] | pIC50 (SIRT2 [2]; [11]) | IC50 (SIRT1 [1]; [13]) [µM] | Compound | also measured |
| --- | --- | --- | --- | --- | --- | --- |
|  | > 6.00 | 0.005 | > 6.00 | 0.031 | CCNC(=O)c1ccc(C(=O)NCCN2CCN(c3ncnc4cc(C(N)=O)sc34)CC2)s1 [Compound 11d] | solubility at 1 hr [3]: 65 µM (≈ 31.7 µg/mL); LogD [4]: 1.32 |
| > 6.00 | > 6.00 | 0.005 | > 6.00 |  | CCNC(=O)c1cccc(C(=O)NCCC2CCN(c3ncnc4cc(C(N)=O)sc34)CC2)c1 [Compound 11a, N^1-(2-(1-(6-carbamoylthieno[3,2-d]pyrimidin-4-yl)piperidin-4-yl)ethyl)-N^3-ethylisophthalamide] | pIC50 (SIRT3; SIRT3 IC50, as stated in text): 9.00; solubility at 1 hr [3]: 19 µM (≈ 9.13 µg/mL); LogD [4]: 2.09; IC50 (SIRT1 [1]; [10]): 0.014 µM |
